The values below come from US20250277001A1, “PEPTIDE DERIVATIVES AND RELATED USES AS OREXIN AGONISTS” (CENTESSA PHARMACEUTICALS (UK) LIMITED, priority 2022, published 2025).

Read-outs that look alike come from different tables or passages of the source. Where a SMILES comes first, the peptide text is derived from it. [ ]: non-standard residue; d: D form. The star is where a group is joined. Malonyl(2,2-Me2,histaminyl) = CC(C)(C(=O)NCCc1cnc[nH]1)C(=O)*; d(hArg) = N=C(N)NCCCC[C@@H](N)C(=O)O; Gly(NCH2CH2Ph) = O=C(O)CNCCc1ccccc1; Hyp = O=C(O)[C@@H]1C[C@@H](O)CN1; NMeN = CN[C@@H](CC(N)=O)C(=O)O; Aoc(2) = CCCCCC[C@H](N)C(=O)O; Phg = N[C@H](C(=O)O)c1ccccc1; Nle = CCCC[C@H](N)C(=O)O

For assay [1], the target named is T1, human orexin type 1 receptor (hOX1R) (Homo sapiens, UniProt O43613).
T1 construct: expressed in transfected cells
T1 sequence (O43613 1-425): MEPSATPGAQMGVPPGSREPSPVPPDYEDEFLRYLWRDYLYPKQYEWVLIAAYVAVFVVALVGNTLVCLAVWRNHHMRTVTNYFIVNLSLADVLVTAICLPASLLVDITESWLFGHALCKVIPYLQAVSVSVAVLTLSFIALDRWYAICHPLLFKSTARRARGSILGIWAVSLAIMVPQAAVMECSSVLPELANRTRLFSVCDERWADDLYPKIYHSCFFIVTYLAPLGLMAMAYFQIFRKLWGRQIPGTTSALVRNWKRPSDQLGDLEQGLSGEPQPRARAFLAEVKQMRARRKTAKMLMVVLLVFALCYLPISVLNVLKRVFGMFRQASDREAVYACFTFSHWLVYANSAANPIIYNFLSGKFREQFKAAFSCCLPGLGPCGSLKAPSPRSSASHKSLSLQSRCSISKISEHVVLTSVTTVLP
The experiment in a line: Measurement of orexin type 1 receptor agonist activity (CHO cells, FLIPR TETRA intracellular Ca2+). The assay is classed as cell-based. From the text: (§1) In some embodiments, the assay uses cells stably expressing either human orexin type 2 or human orexin type 1 receptor. In some embodiments, the cells are obtained by inserting the Orexin receptor cDNA into pcDNA3.1(+) plasmid vector, identifying clones by G418 drug resistance selection, and/or growing a single clone for OX2R-CHO and OX1R-CHO in bulk. In some embodiments, the assay is detected using Fluorescent Imaging Plate Reader TETRA (FLIPR TETRA: manufactured by Molecular Devices). In some embodiments, the agonist activity of the test peptide is calculated assuming that the fluorescence value of the well containing only the dilution buffer is 0% and the fluorescence value of the well containing 10 nM human orexin A (Tocris) buffer is 100%.
(§2) Stable cell line generation. Obtainment of cells stably expressing either human orexin type 2 or human orexin type 1 receptor: to obtain a stable cell line the Orexin receptor cDNA was inserted into pcDNA3.1(+) plasmid vector and clones identified by G418 drug resistance selection. […] A single clone for OX2R-CHO and OX1R-CHO were grown in bulk and frozen to generate a cell bank for routine screening.
(§3) Measurement of orexin type 1 receptor agonist activity. Chinese hamster ovary (CHO) cells expressing human orexin type 1 receptor (hOX1R) were seeded in each well of 384 well black clear bottom plates (BD Flacon) at 10,000 cells per well and cultured for 24 h in an Ham's F12 (Gibco) medium containing 10% fetal calf serum (Sigma Aldrich) under the conditions of 37° C., 5% CO2. After removal of the medium, 50 μL of assay buffer 1 (0.1% bovine serum albumin (Sigma Aldrich), 20 mM HEPES (Molecular Dimensions), […] probenecid (Sigma Aldrich), 1× Calcium 5 dye (Molecular Devices) in Hank's balanced salt solution (Invitrogen)) was added, and the cells were incubated for 60 min under the conditions of 37° C., 5% CO2. A test peptide was dissolved in dimethyl sulfoxide (Sigma Aldrich) to 1 mM, and then diluted with assay buffer 2 (20 mM HEPES, Hank's balanced salt solution, 0.1% bovine serum albumin). For the reaction, a test peptide solution (10 μl) was added using Fluorescent Imaging Plate Reader TETRA (FLIPR TETRA: manufactured by Molecular Devices), a fluorescence value (excitation wavelength 488 nm, measurement wavelength 570 nm) of each well was measured every one second for 2 min, and the agonist activity was determined using the area of the fluorescence value as an indicator of intracellular Ca^2+ concentration. The agonist activity of the test peptide was calculated assuming that the fluorescence value of the well added with only the dilution buffer was 0% and the fluorescence value of the well added with 10 nM human orexin A (Tocris) buffer was 100%. As used herein, Emax indicates the value at 1 μM concentration when orexin A is converted to a full agonist (maximum value of agonist activity: 100%).

Assay [2] deals with T2, human orexin type 2 receptor (hOX2R) (Homo sapiens, UniProt O43614).
T2 construct: expressed in transfected cells
T2 sequence (O43614 1-444): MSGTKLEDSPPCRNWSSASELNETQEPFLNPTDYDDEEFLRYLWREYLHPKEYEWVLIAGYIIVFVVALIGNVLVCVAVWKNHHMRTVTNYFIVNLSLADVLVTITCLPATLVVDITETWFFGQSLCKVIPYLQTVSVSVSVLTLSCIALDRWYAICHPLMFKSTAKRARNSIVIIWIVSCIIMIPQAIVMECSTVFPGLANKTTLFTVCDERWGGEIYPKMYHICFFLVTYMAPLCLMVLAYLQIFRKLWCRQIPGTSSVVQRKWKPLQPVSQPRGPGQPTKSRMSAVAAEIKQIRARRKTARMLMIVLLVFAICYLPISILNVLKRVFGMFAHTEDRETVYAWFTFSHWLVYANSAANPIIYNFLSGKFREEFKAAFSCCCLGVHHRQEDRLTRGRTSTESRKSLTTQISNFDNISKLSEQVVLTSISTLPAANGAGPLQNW
The experiment in a line: Measurement of orexin type 2 receptor agonist activity (CHO cells, FLIPR TETRA intracellular Ca2+). It is filed as cell-based.
Text: as §1, §2
as §3, with “type 2” for “type 1”, “receptor (hOX2R)” for “receptor (hOX1R) were”

The mark [3] stands for this setting: 13 amino acid sequences, Example 4, read-out: OX1 pEC50 (converted).
Setting [4] is: 13 amino acid sequences, Example 4, read-out: OX2 pEC50 (converted).
[5] abbreviates: CHO cells expressing hOX1R, Ca2+ fluorescence, read-out: hOX1 pEC50 (converted).
Where [6] appears, read: CHO cells expressing hOX2R, Ca2+ fluorescence, read-out: hOX2 pEC50 (converted).

With `CCCC[C@H](NC(=O)[C@@H](NC(=O)[C@H](CC(C)C)NC(=O)[C@@H](NC(=O)CNC(=O)[C@H](C)NC(=O)[C@H](C)NC(=O)[C@H](Cc1c[nH]cn1)NC(=O)[C@H](CC(N)=O)NC(=O)CNC(=O)[C@H](CO)NC(=O)[C@H](C)NC(=O)[C@H](Cc1c[nH]c2ccccc12)NC(=O)C(C)(C)C(=O)NCCc1cnc[nH]1)[C@@H](C)CC)[C@@H](C)O)C(N)=O` [SEQ ID NO:7, CAP-TRP-ALA-SER-GLY-ASN-HIS-ALA-ALA-GLY-ILE-LEU-THR-NLE-NH2] ({Malonyl(2,2-Me2,histaminyl)}-WASGNHAAGILT[Nle]-NH2), the EC50 is over 316 nM in assay [1] (setting [3]) and over 1.58 nM in assay [2] (setting [4]).

With `CCCCCC[C@H](NC(=O)[C@@H](NC(=O)[C@H](CC(C)C)NC(=O)[C@@H](NC(=O)CNC(=O)[C@@H](NC(=O)[C@H](C)NC(=O)[C@@H]1C[C@@H](O)CN1C(=O)[C@H](CC(N)=O)NC(=O)CN(CCc1ccccc1)C(=O)[C@H](CCCNC(=N)N)NC(=O)[C@H](CCCNC(=N)N)NC(=O)[C@@H]1C[C@@H](O)CN1C(=O)[C@@H]1C[C@@H](O)CN1C(=O)[C@@H]1C[C@@H](O)CN1)c1ccccc1)[C@@H](C)CC)[C@@H](C)O)C(N)=O` [compound 15] (H-[Hyp][Hyp][Hyp]RR[Gly(NCH2CH2Ph)]N[Hyp]A[Phg]GILT[Aoc(2)]-NH2), the EC50 was 1 to 10 nM in assay [1] (setting [5]) and under 0.1 nM in assay [2] (setting [6]).

As to `CCCCCC[C@H](NC(=O)[C@@H](NC(=O)[C@H](CC(C)C)NC(=O)[C@@H](NC(=O)CNC(=O)[C@@H](NC(=O)[C@H](C)NC(=O)[C@@H]1C[C@@H](O)CN1C(=O)[C@H](CC(N)=O)N(C)C(=O)CN(CCc1ccccc1)C(=O)[C@H](CCCNC(=N)N)NC(=O)[C@H](CCCNC(=N)N)NC(=O)[C@@H]1C[C@@H](O)CN1C(=O)[C@@H]1C[C@@H](O)CN1C(=O)[C@@H]1C[C@@H](O)CN1)c1ccccc1)[C@@H](C)CC)[C@@H](C)O)C(N)=O` [compound 16] (H-[Hyp][Hyp][Hyp]RR[Gly(NCH2CH2Ph)][NMeN][Hyp]A[Phg]GILT[Aoc(2)]-NH2), the EC50 was over 10 nM in assay [1] (setting [5]) and under 0.1 nM in assay [2] (setting [6]).

Turning to `CCCCCC[C@H](NC(=O)[C@@H](NC(=O)[C@H](CC(C)C)NC(=O)[C@@H](NC(=O)CNC(=O)[C@@H](NC(=O)[C@H](C)NC(=O)[C@@H]1C[C@@H](O)CN1C(=O)[C@H](CC(N)=O)N(C)C(=O)CN(CCc1ccccc1)C(=O)[C@H](CCCNC(=N)N)NC(=O)[C@H](CCCNC(=N)N)NC(=O)[C@H]1CCCN1C(=O)[C@@H](CCCCNC(=N)N)NC(=O)[C@@H](CCC(N)=O)NC(=O)C(C)(C)C(=O)NCCc1cnc[nH]1)c1ccccc1)[C@@H](C)CC)[C@@H](C)O)C(N)=O` [compound 18] ({Malonyl(2,2-Me2,histaminyl)}-[dQ][d(hArg)][dP]RR[Gly(NCH2CH2Ph)][NMeN][Hyp]A[Phg]GILT[Aoc(2)]-NH2), the EC50 in assay [1] was over 10 nM; in assay [2], under 0.1 nM.

Consider `CCCC[C@H](NC(=O)[C@@H](NC(=O)[C@H](CC(C)C)NC(=O)[C@@H](NC(=O)CNC(=O)[C@@H](NC(=O)[C@H](C)NC(=O)[C@H](Cc1c[nH]cn1)NC(=O)[C@H](CC(N)=O)NC(=O)CNC(=O)[C@H](CO)NC(=O)[C@H](CCCNC(=N)N)NC(=O)[C@@H](N)Cc1c[nH]c2ccccc12)c1ccccc1)[C@@H](C)CC)[C@@H](C)O)C(N)=O` [SEQ ID NO:8, TRP-ARG-SER-GLY-ASN-HIS-ALA-Phg-GLY-ILE-LEU-THR-NLE-NH2] (H-WRSGNHA[Phg]GILT[Nle]-NH2), for which the EC50 in assay [1] (setting [3]) was over 316 nM; in assay [2] (setting [4]), over 1.58 nM.

In the case of `CCCCCC[C@H](NC(=O)[C@@H](NC(=O)[C@H](CC(C)C)NC(=O)[C@@H](NC(=O)CNC(=O)[C@@H](NC(=O)[C@H](C)NC(=O)[C@@H]1C[C@@H](O)CN1C(=O)[C@H](CC(N)=O)N(C)C(=O)CN(CCc1ccccc1)C(=O)[C@H](CCCNC(=N)N)NC(=O)[C@@H]1CCCN1C(=O)[C@@H](CCCCNC(=N)N)NC(=O)[C@@H](CCC(N)=O)NC(=O)C(C)(C)C(=O)NCCc1cnc[nH]1)c1ccccc1)[C@@H](C)CC)[C@@H](C)O)C(N)=O` [compound 7] ({Malonyl(2,2-Me2,histaminyl)}-[dQ][d(hArg)]PR[Gly(NCH2CH2Ph)][NMeN][Hyp]A[Phg]GILT[Aoc(2)]-NH2), the EC50 in assay [1] was over 10 nM; in assay [2], under 0.1 nM.

`CCCCCC[C@H](NC(=O)[C@@H](NC(=O)[C@H](CC(C)C)NC(=O)[C@@H](NC(=O)CNC(=O)[C@@H](NC(=O)[C@H](C)NC(=O)[C@@H]1C[C@@H](O)CN1C(=O)[C@H](CC(N)=O)N(C)C(=O)CN(CCc1ccccc1)C(=O)[C@H](CCCNC(=N)N)NC(=O)[C@@H]1CCCN1C(=O)[C@@H](CCCCNC(=N)N)NC(=O)[C@H](CCC(N)=O)NC(=O)C(C)(C)C(=O)NCCc1cnc[nH]1)c1ccccc1)[C@@H](C)CC)[C@@H](C)O)C(N)=O` [compound 5] ({Malonyl(2,2-Me2,histaminyl)}-Q[d(hArg)]PR[Gly(NCH2CH2Ph)][NMeN][Hyp]A[Phg]GILT[Aoc(2)]-NH2): the EC50 in assay [1] is over 10 nM; in assay [2], under 0.1 nM.

Consider `CCCC[C@H](NC(=O)[C@@H](NC(=O)[C@H](CC(C)C)NC(=O)[C@@H](NC(=O)CNC(=O)[C@@H](NC(=O)[C@H](C)NC(=O)[C@H](Cc1c[nH]cn1)NC(=O)[C@H](CC(N)=O)NC(=O)CNC(=O)[C@H](CO)NC(=O)[C@H](C)NC(=O)[C@H](Cc1c[nH]c2ccccc12)NC(=O)[C@@H](CC(C)C)NC(=O)[C@@H](N)CC(C)C)c1ccccc1)[C@@H](C)CC)[C@@H](C)O)C(N)=O` [compound 11] (H-L[dL]WASGNHA[Phg]GILT[Nle]-NH2), for which the EC50 is over 10 nM in assay [1] (setting [5]) and under 0.1 nM in assay [2] (setting [6]).
